Values of other authors as cited in US9096579B2, “Amino-indolyl-substituted imidazolyl-pyrimidines and their use as medicaments” (Boehringer Ingelheim International GmbH, priority 2012, dated 2015).

Key:
[1] = test system: platelet counts in patients with ITP; conditions: single center open label study
[2] = test system: atherosclerotic plaque size; conditions: murine model of atherosclerosis

COc1cc(Nc2ncc(F)c(Nc3ccc4c(n3)N(COP(=O)(O)O)C(=O)C(C)(C)O4)n2)cc(OC)c1OC [R788 (R406)]
platelet counts [1]: improved platelet counts
atherosclerotic plaque size [2]: reduced atherosclerotic plaque size
